Data set [1] deals with T1, Inhibitor of nuclear factor kappa-B kinase subunit epsilon (Homo sapiens) (UniProt Q14164).
T1 sequence (whole entry): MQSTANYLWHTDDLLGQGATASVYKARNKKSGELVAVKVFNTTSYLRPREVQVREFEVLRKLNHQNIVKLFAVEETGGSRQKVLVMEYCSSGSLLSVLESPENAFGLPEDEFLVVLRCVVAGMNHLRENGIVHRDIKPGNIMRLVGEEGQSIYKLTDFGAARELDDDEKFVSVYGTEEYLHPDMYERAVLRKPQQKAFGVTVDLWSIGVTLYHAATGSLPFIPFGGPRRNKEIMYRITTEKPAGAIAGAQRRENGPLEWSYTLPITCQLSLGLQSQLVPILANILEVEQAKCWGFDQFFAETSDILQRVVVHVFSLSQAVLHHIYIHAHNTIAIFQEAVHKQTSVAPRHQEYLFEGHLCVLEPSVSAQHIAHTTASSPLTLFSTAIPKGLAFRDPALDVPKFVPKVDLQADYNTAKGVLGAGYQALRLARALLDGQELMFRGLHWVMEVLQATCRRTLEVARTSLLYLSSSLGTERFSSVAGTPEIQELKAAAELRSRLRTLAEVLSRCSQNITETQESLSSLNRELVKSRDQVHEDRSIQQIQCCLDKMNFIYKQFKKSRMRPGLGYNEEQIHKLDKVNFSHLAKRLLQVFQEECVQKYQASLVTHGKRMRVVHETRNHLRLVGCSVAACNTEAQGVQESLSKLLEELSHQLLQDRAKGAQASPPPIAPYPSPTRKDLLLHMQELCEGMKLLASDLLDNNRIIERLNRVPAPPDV
Kind of data set: Inhibition of IKK-epsilon (unknown origin) using fluorescein-labelled DRHDSGLDSMKDE as substrate after 1 hr by TR-FRET assay. In general terms: TR-FRET usually uses a lanthanide donor and a delayed reading to cut background.

In data set [2] the target is T2, Serine/threonine-protein kinase TBK1 (Homo sapiens) (UniProt Q9UHD2).
T2 sequence (whole entry): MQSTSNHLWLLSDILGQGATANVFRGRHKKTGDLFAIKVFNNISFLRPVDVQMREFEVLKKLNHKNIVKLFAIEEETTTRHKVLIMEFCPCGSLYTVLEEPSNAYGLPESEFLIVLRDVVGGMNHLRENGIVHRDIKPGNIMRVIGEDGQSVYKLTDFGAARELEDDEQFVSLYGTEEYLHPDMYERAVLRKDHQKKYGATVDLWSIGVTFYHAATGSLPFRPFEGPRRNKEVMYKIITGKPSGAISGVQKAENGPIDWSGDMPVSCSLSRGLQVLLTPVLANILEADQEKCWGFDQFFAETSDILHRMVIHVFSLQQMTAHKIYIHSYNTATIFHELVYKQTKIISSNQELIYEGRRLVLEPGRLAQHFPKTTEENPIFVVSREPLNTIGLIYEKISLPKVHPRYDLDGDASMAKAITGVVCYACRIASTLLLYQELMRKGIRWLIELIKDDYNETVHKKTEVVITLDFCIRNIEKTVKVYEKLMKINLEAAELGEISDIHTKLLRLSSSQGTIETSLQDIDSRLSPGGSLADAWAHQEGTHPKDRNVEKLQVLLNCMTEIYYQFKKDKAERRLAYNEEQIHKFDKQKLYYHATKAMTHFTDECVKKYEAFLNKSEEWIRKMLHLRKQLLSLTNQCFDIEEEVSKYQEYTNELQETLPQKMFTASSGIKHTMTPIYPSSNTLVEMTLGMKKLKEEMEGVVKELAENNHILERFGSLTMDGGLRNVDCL
Briefly: Inhibition of TBK1 (unknown origin) using fluorescein-labelled DRHDSGLDSMKDE as substrate after 1 hr by TR-FRET assay.

Data set [3] can be described thus: Half life in Balb/c mouse at 0.5 mg/kg, iv by mass spectrometry. It counts as ADME, organism-based. The conditions noted are these: in vivo.
Data set [4] in a line: Volume of distribution in Balb/c mouse at 0.5 mg/kg, iv by mass spectrometry. It counts as ADME, organism-based. The conditions noted are these: in vivo.
Data set [5] concerns the target Serine/threonine-protein kinase SIK2 (Homo sapiens) (UniProt Q9H0K1). Kind of data set: Inhibition of human SIK2 using AMARAASAAALARRR as substrate in presence of [gamma33P]ATP by kinase hotspot assay.

Some results are limits rather than exact numbers.

Data on 6 compounds can be found in ChEMBL document CHEMBL4266054, “Kinase Inhibitors for Treatment of Cancer and Inflammation” (ACS Med Chem Lett, 2018).

Usually half-life stands for the time in which the quantity being followed falls by half. Higher therefore signals slow loss. One may read the Vd as a proportionality between amount in the body and measured concentration, not a real space. High values mean extensive tissue distribution, low ones confinement near the circulation.

Sequence of Serine/threonine-protein kinase SIK2 (Homo sapiens) (Q9H0K1 whole entry, looked up): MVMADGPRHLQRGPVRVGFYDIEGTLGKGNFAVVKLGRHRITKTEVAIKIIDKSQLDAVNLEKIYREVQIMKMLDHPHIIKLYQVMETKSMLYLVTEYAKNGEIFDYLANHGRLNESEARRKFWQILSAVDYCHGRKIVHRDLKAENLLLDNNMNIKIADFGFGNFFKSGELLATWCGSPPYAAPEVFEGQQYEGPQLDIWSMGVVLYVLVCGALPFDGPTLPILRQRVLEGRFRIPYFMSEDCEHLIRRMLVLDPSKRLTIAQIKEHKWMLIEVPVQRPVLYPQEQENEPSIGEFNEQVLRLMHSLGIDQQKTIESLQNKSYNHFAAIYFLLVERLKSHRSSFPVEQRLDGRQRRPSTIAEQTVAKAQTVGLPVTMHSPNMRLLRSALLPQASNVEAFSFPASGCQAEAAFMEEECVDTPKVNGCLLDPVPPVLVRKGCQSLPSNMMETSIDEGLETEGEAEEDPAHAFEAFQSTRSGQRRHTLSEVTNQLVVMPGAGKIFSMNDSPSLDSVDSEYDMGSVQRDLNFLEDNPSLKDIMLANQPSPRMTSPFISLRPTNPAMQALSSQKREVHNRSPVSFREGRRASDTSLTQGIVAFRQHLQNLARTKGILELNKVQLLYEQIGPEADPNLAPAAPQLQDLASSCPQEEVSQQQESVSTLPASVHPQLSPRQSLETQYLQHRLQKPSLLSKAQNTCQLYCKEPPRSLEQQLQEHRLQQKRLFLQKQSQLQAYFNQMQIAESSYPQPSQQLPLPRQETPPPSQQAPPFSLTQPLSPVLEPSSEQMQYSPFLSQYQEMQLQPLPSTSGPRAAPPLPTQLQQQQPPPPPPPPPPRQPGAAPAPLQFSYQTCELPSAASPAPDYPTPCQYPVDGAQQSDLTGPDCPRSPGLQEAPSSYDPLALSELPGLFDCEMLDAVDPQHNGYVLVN

Take `N#Cc1cc(-c2ccnc(Nc3ccc(NC(=O)CN4CCOCC4)nc3)n2)cnc1N1CC[C@H](F)C1`: the INH in data set [1] and in data set [2] was under 30 nM in each case. The same compound showed a half-life in data set [3] of 30 min.

For `N#Cc1cc(-c2ccnc(Nc3ccc(CN4CCOCC4)nc3)n2)cnc1N1CC[C@H](F)C1`, the INH in data set [1] and in data set [2] was under 15 nM throughout. In addition, in data set [4], the volume of distribution (Vd) turned out to be 0.3 L/kg. For the same compound, the half-life in data set [3] is 30 min.

`CCN1CCN(Cc2ccc(Nc3nccc(-c4cnc(N5CC[C@@H](F)C5)c(C#N)c4)n3)cn2)CC1`: the INH in data set [1] was 21 nM; in data set [2], 20 nM.

Take `CN1CCN(Cc2ccc(Nc3nccc(-c4cnc(N5CC[C@H](F)C5)c(C#N)c4)n3)cn2)CC1`: the INH in data set [1] turned out to be 24 nM; in data set [2], 17 nM.

Take `N#Cc1cc(-c2ccnc(Nc3ccc(CN4CCNC(=O)C4)nc3)n2)cnc1N1CC[C@H](F)C1`: the INH in data set [1] and in data set [2] was under 15 nM in each case.

Take `CCN1CCN(Cc2ccc(Nc3nccc(-c4cnc(N5CC[C@H](F)C5)c(C#N)c4)n3)cn2)CC1`: the INH came to 16 nM in data set [1], 9 nM in data set [2] and 7 nM in data set [5].
